Laboratory results taken from patent US10669267B2, “Substituted N-[2-(4-phenoxypiperidin-1-yl)-2-(1,3-thiazol-5-yl)ethyl]benzamide and N-[2-(4-benzyloxypiperidin-1-yl)-2-(1,3-thiazol-5-yl)ethyl]benzamide derivatives P2X7 receptor antagonists” (Axxam S.P.A., priority 2016, dated 2020).
Where two headings read alike, the source gives them in different places.

Key:
rat P2X7R = rat P2X7R (Rattus norvegicus (Rat), UniProt Q64663); experiment: rat P2X7 Ca2+ influx, Screen Quest Fluo-8 No Wash Calcium Assay Kit (FLIPR TETRA); assay type: cell-based; conditions: read-out: rP2X7 (IC50; nM)
Description: Ca^2+ influx was measured in HEK-293 cells stably transfected with the receptor using Screen Quest™ Fluo-8 No Wash Calcium Assay Kit (AAt Bioquest®). Briefly, once inside the cells, the lipophilic blocking groups of Fluo-8 are cleaved by non-specific cell esterases, resulting in a negatively-charged fluorescent-dye that stays inside cells. Its fluorescence increases upon binding to calcium. When HEK-293/P2X7 cells were stimulated with BzATP, Ca^2+ entered the cells and the fluorescence of Fluo-8 NW increaseed.
To routinely test the compounds, HEK-293 cells stably transfected with rat P2X7R were seeded overnight in growth medium at 10000, 15000 or 20000 cells/well in 384-well plate, according to the level of response after thawing. 24 hours later, the medium was removed and the cells were pre-loaded at RT for 1 hour with 20 μL/w of Fluo-8 NW prepared in Tyrode 0.3 mM Ca^2+/Mg^2+-free.
Compounds were tested at […] according to the following method: • first injection at […] of 10 μL of 3× test compound (in Tyrode's buffer 0.3 mM Ca^2+/Mg^2+-free+DMSO 0.5% final concentration) • 5′ incubation • second injection at […] of 15 µL of 3× BzATP at ˜ECK) (in Tyrode's buffer 0.3 mM Ca^2+/Mg^2+-free+BSA 0.0003% final concentration) • Fluorescence recording for 3′
Between one plate and the following, tips were extensively washed with water, then with 100% DMSO and finally with water to avoid carry-over inside the tips.
The effect of the test compounds was measured as percent inhibition vs a reference antagonist and IC50 values were calculated accordingly.

human P2X7 channel = human P2X7 channel (Homo sapiens (Human), UniProt Q99572); experiment: human P2X7 channel assay by automated patch-clamp (QPatch16X), BzATP-evoked current; assay type: cell-based; conditions: HEK-293 cells expressing P2X7, whole-cell voltage clamp, 100 microM BzATP, holding -80 mV; read-out: hP2X7 (IC50; nM)
Description: In order to directly monitor the block of P2X7 channel, an electrophysiological assay was developed and implemented on the QPatch16X automated electrophysiology instrument.
HEK-293 cells expressing the P2X7 channels were cultured in modified EMEM.
72 hours before experiment, 5 million cells were seeded onto T225 flasks. Just before the experiment cells were washed twice, detached from the flask with trypsin-EDTA, re-suspended in the suspension solution and placed on the QPatch 16x.
The compounds (20 mM in a 100% DMSO) stored at −20° C. were prepared the day of the experiment (a first dilution 1:20 in 100% DMSO to prepare a 1 mM stock solution, then a 1 microM solution in external solution+a serial dilution 1:10).
The standard whole-cell voltage clamp experiments were performed at room temperature. For these experiments the multihole technology was used and the data were sampled at 2 KHz.
After establishment of the seal and the passage in the whole cell configuration, the cells were held at −80 mV. The P2XR7 current was evoked by applying 100 microM of BzATP alone (4 times) and then in the presence increasing concentrations of the compound under investigation (1, 10, 100 and 1000 nM).
The pre-incubation periods 5 to 8 contain increasing concentrations of the compound of interest (1, 10, 100 and 1000 nM), as illustrated in FIGURE.
The maximal inward current evoked by BzATP in absence or presence of increasing concentrations of the compounds under investigation was measured and normalized.
Y: normalized response, 100% down to 0%, decreasing as X increases.
LogIC50: same log units as X
HillSlope: slope factor or HS, unitless

[1] = Table 4, HEK-293 cells stably transfected with rat P2X7R, BzATP stimulation
[2] = Table 5, comparison with Compound 59 of WO2015118019

human P2X7 channel, sequence (Q99572 whole entry): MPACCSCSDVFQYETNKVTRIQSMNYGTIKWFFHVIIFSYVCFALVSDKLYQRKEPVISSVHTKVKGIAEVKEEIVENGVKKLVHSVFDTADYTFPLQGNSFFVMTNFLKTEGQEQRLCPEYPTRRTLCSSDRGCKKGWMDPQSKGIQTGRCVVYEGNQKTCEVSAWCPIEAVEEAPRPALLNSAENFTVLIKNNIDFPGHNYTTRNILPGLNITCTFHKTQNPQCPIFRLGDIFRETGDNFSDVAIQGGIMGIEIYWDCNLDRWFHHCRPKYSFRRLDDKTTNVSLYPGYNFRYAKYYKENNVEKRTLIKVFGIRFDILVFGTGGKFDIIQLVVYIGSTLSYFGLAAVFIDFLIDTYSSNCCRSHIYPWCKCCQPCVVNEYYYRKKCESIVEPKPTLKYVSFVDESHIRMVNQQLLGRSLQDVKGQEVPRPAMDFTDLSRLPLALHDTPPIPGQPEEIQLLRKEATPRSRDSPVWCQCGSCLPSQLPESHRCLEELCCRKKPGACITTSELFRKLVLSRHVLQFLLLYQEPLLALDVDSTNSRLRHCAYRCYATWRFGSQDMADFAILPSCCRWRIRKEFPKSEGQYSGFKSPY
rat P2X7R, sequence (Q64663 whole entry): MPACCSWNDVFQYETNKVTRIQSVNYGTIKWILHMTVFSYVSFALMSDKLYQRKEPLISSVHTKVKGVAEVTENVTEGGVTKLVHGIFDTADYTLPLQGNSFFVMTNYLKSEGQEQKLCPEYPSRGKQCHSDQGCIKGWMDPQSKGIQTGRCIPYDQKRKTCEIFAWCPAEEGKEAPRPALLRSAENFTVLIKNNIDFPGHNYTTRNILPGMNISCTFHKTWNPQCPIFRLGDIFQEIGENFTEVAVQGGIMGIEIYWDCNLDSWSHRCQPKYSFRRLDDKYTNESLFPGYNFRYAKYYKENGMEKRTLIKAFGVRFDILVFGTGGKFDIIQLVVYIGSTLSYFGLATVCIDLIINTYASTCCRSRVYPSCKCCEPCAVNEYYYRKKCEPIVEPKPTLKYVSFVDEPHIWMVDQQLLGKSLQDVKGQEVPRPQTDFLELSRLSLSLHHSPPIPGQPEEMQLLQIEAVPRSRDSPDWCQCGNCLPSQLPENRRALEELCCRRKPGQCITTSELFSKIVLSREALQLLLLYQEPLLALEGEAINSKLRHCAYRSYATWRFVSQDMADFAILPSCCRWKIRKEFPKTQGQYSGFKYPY

SMILES | IC50 (rat P2X7R; [1]) [nM] | IC50 (human P2X7 channel) [nM] | IC50 (rat P2X7R; [2]) [nM]
Cc1ncsc1C(CNC(=O)c1c(F)cccc1Cl)N1CCC(Oc2ccc(F)c(F)c2)CC1 (stereo not drawn) [Compound 12, 2-chloro-N-{2-[4-(3,4-difluorophenoxy)piperidin-1-yl]-2-(4-methyl-1,3-thiazol-5-yl)ethyl}-6-fluorobenzamide] | 380 | 25.8 | –
Cc1ncsc1C(CNC(=O)c1cccc2ncccc12)N1CCC(OCc2cccc(F)c2)CC1 (stereo not drawn) [Compound 15, N-(2-{4-[(3-fluorophenyl)methoxy]piperidin-1-yl}-2-(4-methyl-1,3-thiazol-5-yl)ethyl)quinoline-5-carboxamide] | 288 | 11.6 | –
Cc1ncsc1C(CNC(=O)c1cccc2ncccc12)N1CCC(OCc2cc(F)cc(F)c2)CC1 (stereo not drawn) [Compound 17, N-(2-{4-[(3,5-difluorophenyl)methoxy]piperidin-1-yl}-2-(4-methyl-1,3-thiazol-5-yl)ethyl)quinoline-5-carboxamide] | 432 | 32.9 | –
O=C(NCC(c1scnc1C(F)F)N1CCC(OCc2ccc(F)c(F)c2)CC1)c1c(F)cccc1Cl (stereo not drawn) [Compound 27, 2-chloro-N-{2[4-(difluoromethyl)-1,3-thiazol-5-yl]-2-{4-[(3,4-difluorophenyl)methoxy]piperidin-1-yl}ethyl}-6-fluorobenzamide] | 1210 | – | –
Cc1ncsc1C(CNC(=O)c1cccc2ncccc12)N1CCC(OCc2ccccc2F)CC1 (stereo not drawn) [Compound 16, N-(2-{4-[(2-fluorophenyl)methoxy]piperidin-1-yl}-2-(4-methyl-1,3-thiazol-5-yl)ethyl)quinoline-5-carboxamide] | 762 | – | –
Cc1ncsc1C(CNC(=O)c1c(F)cccc1Cl)N1CCC(OCc2ccc(F)cc2)CC1 (stereo not drawn) [Compound 1, 2-chloro-6-fluoro-N-(2-{4-[(4-fluorophenyl)methoxy]piperidin-1-yl)-2-(4-methyl-1,3-thiazol-5-yl}ethyl)benzamide] | 1040 | 45 | –
O=C(NCC(c1scnc1C(F)F)N1CCC(Oc2ccc(F)cc2)CC1)c1cccc2ncccc12 (stereo not drawn) [Compound 34, N-{2-[4-(difluoromethyl)-1,3-thiazol-5-yl]-2-[4-(4-fluorophenoxy)piperidin-1-yl]ethyl}quinoline-5-carboxamide] | 144 | 39.7 | 144
O=C(NCC(c1scnc1C(F)F)N1CCC(Oc2ccc(Cl)cc2)CC1)c1c(F)cccc1Cl (stereo not drawn) [Compound 28, 2-chloro-N-{2-[4-(4-chlorophenoxy)piperidin-1-yl]-2-[4-(difluoromethyl)-1,3-thiazol-5-yl]ethyl}-6-fluorobenzamide] | 2020 | – | –
O=C(NCC(c1scnc1C(F)F)N1CCC(OCc2ccccc2F)CC1)c1cccc2ncccc12 (stereo not drawn) [Compound 32, N-{2-[4-(difluoromethyl)-1,3-thiazol-5-yl]-2-{4-[(2-fluorophenyl)methoxy]piperidin-1-yl}ethyl}quinoline-5-carboxamide] | 251 | – | –
Cc1ncsc1C(CNC(=O)c1cccc2ncccc12)N1CCC(OCc2ccc(F)cc2)CC1 (stereo not drawn) [Compound 13, N-(2-{4-[(4-fluorophenyl)methoxy]piperidin-1-yl}-2-(4-methyl-1,3-thiazol-5-yl)ethyl)quinoline-5-carboxamide] | 371 | 42.1 | –
O=C(NCC(c1scnc1C(F)F)N1CCC(Oc2cccc(F)c2)CC1)c1c(F)cccc1Cl (stereo not drawn) [Compound 29, 2-chloro-N-{2-[4-(difluoromethyl)-1,3-thiazol-5-yl]-2-[4-(3-fluorophenoxy)piperidin-1-yl]ethyl}-6-fluorobenzamide] | 441 | 28.9 | –
O=C(NCC(c1scnc1C(F)F)N1CCC(Oc2cccc(F)c2)CC1)c1cccc2ncccc12 (stereo not drawn) [Compound 36, N-{2-[4-(difluoromethyl)-1,3-thiazol-5-yl]-2-[4-(3-fluorophenoxy)piperidin-1-yl]ethyl}quinoline-5-carboxamide] | 295 | – | –
Cc1ncsc1C(CNC(=O)c1c(F)cccc1Cl)N1CCC(Oc2cccc(F)c2)CC1 (stereo not drawn) [Compound 9, 2-chloro-6-fluoro-N-{2-[4-(3-fluorophenoxy)piperidin-1-yl]-2-(4-methyl-1,3-thiazol-5-yl)ethyl}benzamide] | 402 | 23.6 | –
Cc1ncsc1C(CNC(=O)c1cccc2ncccc12)N1CCC(Oc2ccc(Cl)cc2)CC1 (stereo not drawn) [Compound 20, N-{2-[4-(4-chlorophenoxy)piperidin-1-yl]-2-(4-methyl-1,3-thiazol-5-yl)ethyl}quinoline-5-carboxamide] | 808 | – | –
O=C(NCC(c1scnc1C(F)F)N1CCC(Oc2cc(F)cc(F)c2)CC1)c1cccc2ncccc12 (stereo not drawn) [Compound 38, N-{2-[4-(difluoromethyl)-1,3-thiazol-5-yl]-2-[4-(3,5-difluorophenoxy)piperidin-1-yl]ethyl}quinoline-5-carboxamide] | 216 | – | –
O=C(NCC(c1scnc1C(F)F)N1CCC(OCc2ccccc2F)CC1)c1c(F)cccc1Cl (stereo not drawn) [Compound 25, 2-chloro-N-{2-[4-(difluoromethyl)-1,3-thiazol-5-yl]-2-{4-[(2-fluorophenyl)methoxy]piperidin-1-yl}ethyl}-6-fluorobenzamide] | 252 | – | –
O=C(NCC(c1scnc1C(F)F)N1CCC(Oc2ccccc2F)CC1)c1cccc2ncccc12 (stereo not drawn) [Compound 37, N-{2-[4-(difluoromethyl)-1,3-thiazol-5-yl]-2-[4-(2-fluorophenoxy)piperidin-1-yl]ethyl}quinoline-5-carboxamide] | 133 | 43.2 | 133
Cc1ncsc1C(CNC(=O)c1c(F)cccc1Cl)N1CCC(OCc2ccc(F)c(F)c2)CC1 (stereo not drawn) [Compound 6, 2-chloro-N-(2-{4-[(3,4-difluorophenyl)methoxy]piperidin-1-yl}-2-(4-methyl-1,3-thiazol-5-yl)ethyl)-6-fluorobenzamide] | 1160 | – | –
O=C(NCC(c1scnc1C(F)F)N1CCC(Oc2ccc(Cl)cc2)CC1)c1cccc2ncccc12 (stereo not drawn) [Compound 35, N-{2-[4-(4-chlorophenoxy)piperidin-1-yl]-2-[4-(difluoromethyl)-1,3-thiazol-5-yl]ethyl}quinoline-5-carboxamide] | 323 | – | –
Cc1ncsc1C(CNC(=O)c1c(F)cccc1Cl)N1CCC(OCc2ccc(Cl)cc2)CC1 (stereo not drawn) [Compound 2, 2-chloro-N-(2-{4-[(4-chlorophenyl)methoxy]piperidin-1-yl}-2-(4-methyl-1,3-thiazol-5-yl)ethyl)-6-fluorobenzamide] | 971 | – | –
Cc1ncsc1C(CNC(=O)c1c(F)cccc1Cl)N1CCC(Oc2ccc(Cl)cc2)CC1 (stereo not drawn) [Compound 8, 2-chloro-N-{2-[4-(4-chlorophenoxy)piperidin-1-yl]-2-(4-methyl-1,3-thiazol-5-yl)ethyl}-6-fluorobenzamide] | 1310 | – | –
Cc1ncsc1C(CNC(=O)c1cccc2ncccc12)N1CCC(OCc2ccc(Cl)cc2)CC1 (stereo not drawn) [Compound 14, N-(2-{4-[(4-chlorophenyl)methoxy]piperidin-1-yl}-2-(4-methyl-1,3-thiazol-5-yl)ethyl)quinoline-5-carboxamide] | 1120 | – | –
O=C(NCC(c1scnc1C(F)F)N1CCC(Oc2cc(F)cc(F)c2)CC1)c1c(F)cccc1Cl (stereo not drawn) [Compound 31, 2-chloro-N-{2-[4-(difluoromethyl)-1,3-thiazol-5-yl]-2-[4-(3,5-difluorophenoxy)piperidin-1-yl]ethyl}-6-fluorobenzamide] | 458 | – | –
Cc1ncsc1C(CNC(=O)c1cccc2ncccc12)N1CCC(Oc2cc(F)cc(F)c2)CC1 (stereo not drawn) [Compound 23, N-{2-[4-(3,5-difluorophenoxy)piperidin-1-yl]-2-(4-methyl-1,3-thiazol-5-yl)ethyl}quinoline-5-carboxamide] | 631 | – | –
O=C(NCC(c1scnc1C(F)F)N1CCC(OCc2cc(F)cc(F)c2)CC1)c1c(F)cccc1Cl (stereo not drawn) [Compound 26, 2-chloro-N-{2-[4-(difluoromethyl)-1,3-thiazol-5-yl]-2-{4-[(3,5-difluorophenyl)methoxy]piperidin-1-yl}ethyl}-6-fluorobenzamide] | 578 | – | –
